In patent EP0377127B1, “Use of Myricetin-3-O-beta-D glucuronide as medicament” (Plantamed Arzneimittel GmbH, priority 1989, dated 1990):
Where two headings read alike, the source gives them in different places.

Experiments:
Magenschleimhaut = experiment: Preliminary examination of gastric mucosa damage after peroral dosing; format: in vivo; settings: 1 mg/kg, preliminary examinations
Description: Es ist gesicherte Erkenntnis, daß Cyclooxygenase-Hemmer, also Hemmer der Biosynthese von Prostaglandinen, wie etwa Indo, die Magenschleimhaut schädigen können. […] Im Ergebnis liefern diese Untersuchungen einen Hinweis auf die wesentlich günstiger zu beurteilende Frage der Toxizität von HIMAK.

PG-Biosynthese = experiment: Prostaglandin biosynthesis in the perfused rabbit ear (labelled arachidonic acid, metabolites separated by TLC; RIA); format: cell-based, Kaninchen; settings: for inhibition at 1 µg/mL: Oryctolagus cuniculus, read-out: hemmen die Biosynthese von PGI₂ und PGE₂
Description: Methode: Perfundiertes Kaninchenohr mit C-Arachidonsäure, Vormarkierung und Messung der radioaktiven Metalboliten mittels Auftrennung durch DC. • 2.

[1] = test system: Carrageenin-induzierte Rattenpfotenödem; experiment: Carrageenin-induced rat paw oedema (acute inflammation model); format: in vivo, Ratte
Protocol: Zur Prüfung der entzündungshemmenden Wirkung dieser Substanz wird das Modell des Carrageenin-induzierten Rattenpfotenödems herangezogen, ein allgemein anerkanntes Modell zur Ermittlung anhand einer akuten Entzündung. Die entzündungshemmende Wirkung von vakuumgetrockneten und lyophilisierten Extrakten ist in Abb. 1 wiedergegeben. Bei der Anwendung von vakuumgetrocknetem Blattextrakt von Epilobium angustifolium wurde eine Dosis von 72 mg/kg Ratte, für sprühgetrockneten Blattextrakt eine Dosis von 136,47 mg/kg Ratte und für lyophilisierten Blattextrakt eine Dosis von 16,4 mg/kg Ratte eingesetzt. Das Ausmaß der entzündungswirkenden von vakuumgetrockneten und lyophilisierten Extrakten der in Abbildung 1 aufgezeigten Konzentrationen entspricht ca. 1 bis 2 mg Indometacin/kg Ratte.
Der Einfluß auf das Carrageenin-induzierte Rattenpfotenödem geht aus den Kurven in den Abbildungen 2 und 3 hervor. Abbildung 2 stellt unterschiedliche Dosen von HIMAK einander gegenüber, Abb. 3 dient dem Vergleich von HIMAK einer bestimmten Dosis mit einem wässrigen Auszug von Epilobium und Indometacin. Der Darstellung des Einflusses der erfindungsgemäßen Substanz auf die Prostaglandin-Biosynthese am pharmakologischen Modell nach ISAKSON, modifiziert nach JUAN und SAMETZ am perfundierten Kaninchenohr sowie mittels Radioimmunoassay (RIA) dienen die Abbildungen 4 und 5.

Row | Structure (SMILES) | Bildung kleiner Erosionen in der Magenschleimhaut (Magenschleimhaut) | inhibition at 1 µg/mL (PG-Biosynthese) | Dosisbereich, der das Carrageenin-Pfotenödem ähnlich stark reduziert wie 1 mg/kg Indomethacin (p.o.) ([1]; compared with 1 mg/kg Indomethacin p.o.) | Hemmung der experimentellen akuten Entzündung (Rattenpfotenödem mit Carrageenin) (in words) ([1]; dose-dependent) | Wirksamkeit im Vergleich mit der Referenzsubstanz Indo auf Gewichtsbasis (in words) ([1]; first experiments, weight basis) | so wirksam wie Indo, auf geschätzter Molekulargewichtsbasis ([1]; potency relative to Indo, estimated molecular weight basis) | so wirksam wie Indo, auf Gewichtsbasis ([1]; potency relative to Indo, weight basis) | inhibition at 1 µg/mL (PG-Biosynthese; 1 »g/ml (Endkonzentration) Indo, ca. 1 »g/ml HIMAK, perfused rabbit ear) | Hemmung der Biosynthese von Prostaglandinen (in words) (PG-Biosynthese; dose-dependent) | Hemmung der PG-Biosynthese im Vergleich mit Indo (in words) (PG-Biosynthese; weight basis, similar concentration as Indo (Abb. 4))
1 | COc1ccc2c(c1)c(CC(=O)O)c(C)n2C(=O)c1ccc(Cl)cc1 [Indo, Indometacin, reference compound] | Bildung kleiner Erosionen in der Magenschleimhaut | > 80% | – | – | – | – | – | – | – | –
2 | O=C(O)[C@H]1O[C@@H](Oc2c(-c3cc(O)c(O)c(O)c3)oc3cc(O)cc(O)c3c2=O)[C@H](O)[C@@H](O)[C@@H]1O [HIMAK, Myricetin-3-0-β-D-glucuronid] | nicht der Fall | – | 40 - 200 »g/kg KG | deutlich hemmen | wesentlich wirksamer | ~5 mal | ≥ 10 mal | > 80% | deutlich hemmen | in etwa gleichem Ausmaß gehemmt
